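A five-concentration, 48-hour dose response in 96-well plates underlies each endpoint, interpolated linearly between surrounding concentrations. Abbreviation: GI50, concentration required for 50% inhibition of growth. The concentration for full growth arrest is given as TGI.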
Legend:
Experiment in all cases: inhibition of tumour cell growth, NCI panel, 48 h
U251 CNS = system: U251 CNS
UO-31 renal = system: UO-31 renal
OVCAR-3 ovarian = system: OVCAR-3 ovarian
NCI-H23 lung = system: NCI-H23 lung
SW-620 colon = system: SW-620 colon
SN12C renal = system: SN12C renal
UACC-257 melanoma = system: UACC-257 melanoma
SF-539 CNS = system: SF-539 CNS
T-47D breast = system: T-47D breast
HT29 colon = system: HT29 colon
NCI-H460 lung = system: NCI-H460 lung
A549 NSCLC = system: A549 NSCLC
HS 578T breast = system: HS 578T breast
SK-MEL-28 melanoma = system: SK-MEL-28 melanoma
SK-MEL-5 melanoma = system: SK-MEL-5 melanoma
OVCAR-5 ovarian = system: OVCAR-5 ovarian
MOLT-4 leukemia = system: MOLT-4 leukemia
SF-295 CNS = system: SF-295 CNS
786-0 renal = system: 786-0 renal
HL-60(TB) leukemia = system: HL-60(TB) leukemia
M14 melanoma = system: M14 melanoma
NCI-H226 lung = system: NCI-H226 lung
CCRF-CEM leukemia = system: CCRF-CEM leukemia
DU-145 prostate = system: DU-145 prostate
CAKI-1 renal = system: CAKI-1 renal
OVCAR-8 ovarian = system: OVCAR-8 ovarian
NCI/ADR-RES ovarian = system: NCI/ADR-RES ovarian
HOP-62 NSCLC = system: HOP-62 NSCLC
RXF 393 renal = system: RXF 393 renal
MDA-MB-231 breast = system: MDA-MB-231 breast
SR leukemia = system: SR leukemia
BT-549 breast = system: BT-549 breast
K-562 leukemia = system: K-562 leukemia
MCF7 breast = system: MCF7 breast
PC-3 prostate = system: PC-3 prostate
HCC-2998 colon = system: HCC-2998 colon
MALME-3M melanoma = system: MALME-3M melanoma
HCT-15 colon = system: HCT-15 colon
ACHN renal = system: ACHN renal
HOP-92 NSCLC = system: HOP-92 NSCLC
SK-OV-3 ovarian = system: SK-OV-3 ovarian
SNB-75 CNS = system: SNB-75 CNS
HCT-116 colon = system: HCT-116 colon
OVCAR-4 ovarian = system: OVCAR-4 ovarian
NCI-H522 lung = system: NCI-H522 lung
SF-268 CNS = system: SF-268 CNS
IGROV1 ovarian = system: IGROV1 ovarian
MDA-MB-435 = system: MDA-MB-435
LOX IMVI melanoma = system: LOX IMVI melanoma
RPMI-8226 leukemia = system: RPMI-8226 leukemia
SK-MEL-2 melanoma = system: SK-MEL-2 melanoma
EKVX NSCLC = system: EKVX NSCLC
UACC-62 melanoma = system: UACC-62 melanoma
SNB-19 CNS = system: SNB-19 CNS
COLO 205 colon = system: COLO 205 colon
KM12 colon = system: KM12 colon
A498 renal = system: A498 renal
TK-10 renal = system: TK-10 renal

Compound `CCc1ccc2c(c1)N(CCO)C1=C(C(=O)OC1)C2c1cccc(Br)c1` (stereo unspecified) has a GI50 (U251 CNS) of 494 nM, a TGI (U251 CNS) of 14500 nM and a GI50 (UO-31 renal) of 1050 nM. The TGI (UO-31 renal) was 18100 nM, the GI50 (OVCAR-3 ovarian) was 296 nM and the TGI (OVCAR-3 ovarian) was 1230 nM. For the same compound, the GI50 (NCI-H23 lung) was 660 nM, the TGI (NCI-H23 lung) was 15600 nM and the GI50 (SW-620 colon) was 350 nM. It also gave a TGI (SW-620 colon) of 18700 nM, a GI50 (SN12C renal) of 1350 nM and a TGI (SN12C renal) of 18900 nM. It also gave a GI50 (UACC-257 melanoma) of 623 nM, a TGI (UACC-257 melanoma) of 19600 nM and a GI50 (SF-539 CNS) of 458 nM. The TGI (SF-539 CNS) was 10100 nM, the GI50 (T-47D breast) was 540 nM and the TGI (T-47D breast) was 19600 nM. It also gave a GI50 (HT29 colon) of 342 nM, a TGI (HT29 colon) of 4360 nM and a GI50 (NCI-H460 lung) of 397 nM. For the same compound, the TGI (NCI-H460 lung) was 11900 nM, the GI50 (A549 NSCLC) was 655 nM and the TGI (A549 NSCLC) was 14800 nM. It also gave a GI50 (HS 578T breast) of 468 nM, a TGI (HS 578T breast) of 20900 nM and a GI50 (SK-MEL-28 melanoma) of 473 nM. The TGI (SK-MEL-28 melanoma) was 14300 nM, the GI50 (SK-MEL-5 melanoma) was 256 nM and the TGI (SK-MEL-5 melanoma) was 8670 nM. It also gave a GI50 (OVCAR-5 ovarian) of 4370 nM, a TGI (OVCAR-5 ovarian) of 20800 nM and a GI50 (MOLT-4 leukemia) of 620 nM. The TGI (MOLT-4 leukemia) was 19300 nM, the GI50 (SF-295 CNS) was 374 nM and the TGI (SF-295 CNS) was 13200 nM. It also gave a GI50 (786-0 renal) of 617 nM, a TGI (786-0 renal) of 14700 nM and a GI50 (HL-60(TB) leukemia) of 317 nM. It also gave a TGI (HL-60(TB) leukemia) of 2210 nM, a GI50 (M14 melanoma) of 525 nM and a TGI (M14 melanoma) of 10800 nM. The GI50 (NCI-H226 lung) was 988 nM, the TGI (NCI-H226 lung) was 13200 nM and the GI50 (CCRF-CEM leukemia) was 351 nM. It also gave a TGI (CCRF-CEM leukemia) of 15600 nM, a GI50 (DU-145 prostate) of 658 nM and a TGI (DU-145 prostate) of 11300 nM. It also gave a GI50 (CAKI-1 renal) of 711 nM, a TGI (CAKI-1 renal) of 23000 nM and a GI50 (OVCAR-8 ovarian) of 847 nM. The TGI (OVCAR-8 ovarian) was 19600 nM, the GI50 (NCI/ADR-RES ovarian) was 278 nM and the TGI (NCI/ADR-RES ovarian) was 2210 nM. It also gave a GI50 (HOP-62 NSCLC) of 462 nM, a TGI (HOP-62 NSCLC) of 14500 nM and a GI50 (RXF 393 renal) of 216 nM. For the same compound, the TGI (RXF 393 renal) was 1820 nM, the GI50 (MDA-MB-231 breast) was 2430 nM and the TGI (MDA-MB-231 breast) was 15700 nM. For the same compound, the GI50 (SR leukemia) was 409 nM, the TGI (SR leukemia) was 20300 nM and the GI50 (BT-549 breast) was 1350 nM. The TGI (BT-549 breast) was 19700 nM, the GI50 (K-562 leukemia) was 368 nM and the TGI (K-562 leukemia) was 14700 nM. For the same compound, the GI50 (MCF7 breast) was 244 nM, the TGI (MCF7 breast) was 1680 nM and the GI50 (PC-3 prostate) was 491 nM. The TGI (PC-3 prostate) was 16200 nM, the GI50 (HCC-2998 colon) was 1050 nM and the TGI (HCC-2998 colon) was 7820 nM. The GI50 (MALME-3M melanoma) was 2580 nM, the TGI (MALME-3M melanoma) was 25600 nM and the GI50 (HCT-15 colon) was 584 nM. The TGI (HCT-15 colon) was 15800 nM, the GI50 (ACHN renal) was 1610 nM and the TGI (ACHN renal) was 20400 nM. It also gave a GI50 (HOP-92 NSCLC) of 3150 nM, a TGI (HOP-92 NSCLC) of 21500 nM and a GI50 (SK-OV-3 ovarian) of 420 nM. For the same compound, the TGI (SK-OV-3 ovarian) was 10100 nM, the GI50 (SNB-75 CNS) was 307 nM and the TGI (SNB-75 CNS) was 8300 nM. For the same compound, the GI50 (HCT-116 colon) was 449 nM, the TGI (HCT-116 colon) was 14000 nM and the GI50 (OVCAR-4 ovarian) was 738 nM. For the same compound, the TGI (OVCAR-4 ovarian) was 17300 nM, the GI50 (NCI-H522 lung) was 173 nM and the TGI (NCI-H522 lung) was 2060 nM. It also gave a GI50 (SF-268 CNS) of 722 nM, a TGI (SF-268 CNS) of 15900 nM and a GI50 (IGROV1 ovarian) of 2560 nM. It also gave a TGI (IGROV1 ovarian) of 25900 nM, a GI50 (MDA-MB-435) of 97.9 nM and a TGI (MDA-MB-435) of 521 nM. For the same compound, the GI50 (LOX IMVI melanoma) was 663 nM, the TGI (LOX IMVI melanoma) was 17200 nM and the GI50 (RPMI-8226 leukemia) was 983 nM. It also gave a TGI (RPMI-8226 leukemia) of 33500 nM, a GI50 (SK-MEL-2 melanoma) of 300 nM and a TGI (SK-MEL-2 melanoma) of 7140 nM. For the same compound, the GI50 (EKVX NSCLC) was 2450 nM, the TGI (EKVX NSCLC) was 20600 nM and the GI50 (UACC-62 melanoma) was 518 nM. For the same compound, the TGI (UACC-62 melanoma) was 16700 nM, the GI50 (SNB-19 CNS) was 806 nM and the TGI (SNB-19 CNS) was 18400 nM. The GI50 (COLO 205 colon) was 358 nM, the TGI (COLO 205 colon) was 1420 nM and the GI50 (KM12 colon) was 336 nM. The TGI (KM12 colon) was 12500 nM, the GI50 (A498 renal) was 373 nM and the TGI (A498 renal) was 8840 nM. The GI50 (TK-10 renal) was 1810 nM and the TGI (TK-10 renal) was 18400 nM.
